Experiments:
human TLR8 = target: T1, human TLR8 (Homo sapiens, UniProt Q9NR97); assay: HEK293-Blue-hTLR-8 cells assay (SEAP reporter, R848 stimulation); assay type: cell-based; conditions: HEK293-Blue-hTLR8 cells, R848 ligand, 20 hrs incubation; read-out: HEK/hTLR8 IC50
T1 sequence (Q9NR97 27-1041): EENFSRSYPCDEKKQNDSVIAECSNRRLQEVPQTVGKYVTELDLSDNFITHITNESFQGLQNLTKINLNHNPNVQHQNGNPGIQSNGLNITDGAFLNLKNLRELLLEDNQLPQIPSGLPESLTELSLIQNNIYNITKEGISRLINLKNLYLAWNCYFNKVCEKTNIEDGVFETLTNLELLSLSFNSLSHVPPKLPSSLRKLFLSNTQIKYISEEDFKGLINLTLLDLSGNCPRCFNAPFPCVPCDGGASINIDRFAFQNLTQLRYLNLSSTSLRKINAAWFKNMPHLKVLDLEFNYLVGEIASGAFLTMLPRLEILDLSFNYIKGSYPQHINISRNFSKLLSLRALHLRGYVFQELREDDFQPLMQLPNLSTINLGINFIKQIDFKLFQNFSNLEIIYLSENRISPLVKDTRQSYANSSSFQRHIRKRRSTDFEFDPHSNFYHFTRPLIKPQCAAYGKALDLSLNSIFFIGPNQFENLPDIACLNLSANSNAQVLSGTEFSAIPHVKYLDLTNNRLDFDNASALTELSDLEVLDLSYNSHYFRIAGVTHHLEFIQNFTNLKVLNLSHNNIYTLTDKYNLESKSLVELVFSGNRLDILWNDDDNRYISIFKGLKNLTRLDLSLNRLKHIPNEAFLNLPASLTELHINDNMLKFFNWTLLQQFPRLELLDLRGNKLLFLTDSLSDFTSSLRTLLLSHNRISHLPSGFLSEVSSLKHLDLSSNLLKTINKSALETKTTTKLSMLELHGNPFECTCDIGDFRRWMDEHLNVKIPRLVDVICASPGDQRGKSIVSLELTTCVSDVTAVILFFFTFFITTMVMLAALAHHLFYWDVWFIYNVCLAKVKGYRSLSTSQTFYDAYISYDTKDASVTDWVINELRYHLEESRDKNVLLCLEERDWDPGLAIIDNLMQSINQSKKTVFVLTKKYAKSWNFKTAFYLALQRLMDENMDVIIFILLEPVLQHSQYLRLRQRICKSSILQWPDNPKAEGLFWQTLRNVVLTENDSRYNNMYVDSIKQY
Method: The following tests were carried out in order to determine the activity of the compounds of formula (I) in HEK293-Blue-hTLR-7/8/9 cells assay.
A stable HEK293-Blue-hTLR-8 cell line was purchased from InvivoGen (Cat.#: hkb-htlr8, San Diego, California, USA). These cells were originally designed for studying the stimulation of human TLR8 by monitoring the activation of NF-κB. A SEAP (secreted embryonic alkaline phosphatase) reporter gene was placed under the control of the IFN-β minimal promoter fused to five NF-κB and AP-1-binding sites. The SEAP was induced by activating NF-κB and. AP-1 via stimulating HEK-Blue hTLR8 cells with TLR8 ligands. Therefore the reporter expression was declined by TLR8 antagonist under the stimulation of a ligand, such as R848, for incubation of 20 hrs. The cell culture supernatant SEAP reporter activity was determined using QUANTI-Blue™ kit (Cat.#: rep-qb1, Invivogen, San Diego, Ca, USA) at a wavelength of 640 nm, a detection medium that tunas purple or blue in the presence of alkaline phosphatase.
HEK293-Blue-hTLR8 cells were incubated at a density of 250,000˜450,000 cells/mL in a volume of 170 μL in a 96-well plate in Dulbecco's Modified Eagle's medium (DMEM) containing 4.5 g/L glucose, 50 U/mL penicillin, […], […], 2 mM L-glutamine, 10% (v/v) heat-inactivated fetal bovine serum with addition of 20 μL test compound in a serial dilution in the presence of final DMSO at 1% and 10 μL of 60 uM R848 in above DMEM, perform incubation under 37° C. in a CO2 incubator for 20 hrs. Then 20 μL of the supernatant from each well was incubated with […] Quanti-blue substrate solution at 37° C. for 2 hrs and the absorbance was read at 620-655 nm using a spectrophotometer. The signalling pathway that TLR8 activation leads to downstream NF-κB activation has been widely accepted, and therefore similar reporter assay was modified for evaluating TLR8 antagonist.

CYP2D6 = target: T2, CYP2D6 (Homo sapiens, UniProt P10635); assay: CYP inhibition assay in human liver microsome; assay type: in vitro ADME; conditions: liver microsomes, probe dextromethorphan, 10 μM compound, dextromethorphan substrate, percentage inhibition < 0: not or weak inhibitor, read-out: CYP 2D6 inhibition % @10 μM
T2 construct: tissue BD-Gentest 452117; host or cells: human liver microsomes
Method: This is a high throughput screening assay used for assessment of reversible inhibition of CYP2D6 activity of test compounds in human liver microsome (HLM) in early discovery stage.
10 mM DMSO stock solutions of test compounds were diluted in DMSO to generate 2 mM intermediate stock solution. 250 nL of intermediate stock solution were transferred in duplicate into 3 separate 384 well microtitre plates (assay-ready plates). A mixture of HLM and each substrate was made up. 45 μL of HLM substrate mix was then transferred to each well of an assay ready plate and mixed. The negative (solvent) and positive control (standard inhibitor for CYP 2D6) were included in each assay ready plate. The assay ready plate was warmed to 37° C. in an incubator over 10 minutes. 5μL pre-warmed NADPH regenerating system was added to each incubation well to start the reaction. Final incubation volume was 50 μL. The assay plate then was placed back in the 37° C. incubator. After 10 minutes incubation, incubates were quenched by addition of 50 μL 100% acetonitrile containing internal standards (20 ng/mL D3-Dextrorphan). The supernatants were collected for RapidFire/MS/MS analysis.
RapidFire online solid phase extraction/sample injection system (Agilent) coupled with API4000 triple quadrupole mass spectrometer (AB Sciex) were used for sample analysis. The mobile phase composed of acetonitrile and water supplemented with 0.1% formic acid. A C4 solid phase extraction cartridge is used for sample separation. MS detection is achieved in positive ion MRM mode.
Peak areas for substrate, metabolite and internal standard are determined using the RapidFire integrator software (version 3.6.12009.12296). Peak area ratios (PAR) of metabolite and internal standard (stable-labelled metabolite) are then calculated. The measurement window for each experiment is then defined:
PAR (0% activity)=average PAR for all incubations containing concentrated inhibitor;
Par (100% activity)=average PAR for all incubations containing no inhibitor (DMSO controls);
% Activity (test inhibitor)
=[PAR(test inhibitor)-PAR(0% activity)]/[PAR(100% activity)-PAR(0% activity)];
% Inhibition (test inhibitor)=100-% Activity (test inhibitor).

T2 sequence (P10635 whole entry): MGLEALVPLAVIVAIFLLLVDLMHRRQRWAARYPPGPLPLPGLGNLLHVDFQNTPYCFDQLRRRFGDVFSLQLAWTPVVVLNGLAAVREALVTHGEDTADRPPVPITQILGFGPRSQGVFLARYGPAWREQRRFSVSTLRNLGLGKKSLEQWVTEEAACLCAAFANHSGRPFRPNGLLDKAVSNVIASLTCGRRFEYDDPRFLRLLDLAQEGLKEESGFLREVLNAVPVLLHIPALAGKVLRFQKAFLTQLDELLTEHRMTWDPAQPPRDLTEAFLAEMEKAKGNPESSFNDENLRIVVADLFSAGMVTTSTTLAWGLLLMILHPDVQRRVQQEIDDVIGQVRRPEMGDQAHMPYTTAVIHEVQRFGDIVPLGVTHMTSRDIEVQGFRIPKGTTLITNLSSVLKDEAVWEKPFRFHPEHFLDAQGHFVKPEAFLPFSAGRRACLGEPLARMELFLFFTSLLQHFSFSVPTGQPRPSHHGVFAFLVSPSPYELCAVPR

SMILES	IC50 (human TLR8)	inhibition at 10 min, 10 µM (CYP2D6)
C[C@@H]1CN(c2ccc(C#N)c3ncccc23)C[C@H](C)N1Cc1ccc(N2CCNCC2)cc1 [Example 1, 5-[(3R,5S)-3,5-Dimethyl-4-[(4-piperazin-1-ylphenyl)methyl]piperazin-1-yl]quinoline-8-carbonitrile]	16 nM	17%
C[C@@H]1CN(c2ccc(C#N)c3ncccc23)C[C@@H](C)N1Cc1ccc(N2CCNCC2)cc1 [Example 2]	32 nM	–
C[C@@H]1CN(c2ccc(C#N)c3ncccc23)C[C@H](C)N1Cc1ccc(N2CCNCC2)nc1 [Example 3, 5-[(3R,5S)-3,5-Dimethyl-4-[(6-piperazin-1-yl-3-pyridyl)methyl]piperazin-1-yl]quinoline-8-carbonitrile]	31 nM	-2.5%
C[C@@H]1CN(c2ccc(C#N)c3ncccc23)C[C@H](C)N1Cc1ncc(N2CCNCC2)cn1 [Example 4, 5-[(3S,5R)-3,5-Dimethyl-4-[(5-piperazin-1-ylpyrimidin-2-yl)methyl]piperazin-1-yl]quinoline-8-carbonitrile]	19 nM	–
C[C@@H]1CN(c2ccc(C#N)c3ncccc23)C[C@H](C)N1Cc1ccc(N2CCNCC2)cn1 [Example 5, 5-[(3S,5R)-3,5-Dimethyl-4-[(5-piperazin-1-yl-2-pyridyl)methyl]piperazin-1-yl]quinoline-8-carbonitrile]	15 nM	5.5%
C[C@@H]1CN(c2ccc(C#N)c3ncccc23)C[C@H](C)N1Cc1ncc(N2CCN(C(=O)CN(C)C)CC2)cn1 [Example 6, 5-[(3S,5R)-4-[[5-[4-[2-(Dimethylamino)acetyl]piperazin-1-yl]pyrimidin-2-yl]methyl]-3,5-dimethyl-piperazin-1-yl]quinoline-8-carbonitrile]	53 nM	5%
C[C@@H]1CN(c2ccc(C#N)c3ncccc23)C[C@H](C)N1Cc1ccc(N2CCN(C)CC2)cn1 [Example 7, 5-[(3S,5R)-3,5-dimethyl-4-[[5-(4-methylpiperazin-1-yl)-2-pyridyl]methyl]piperazin-1-yl]quinoline-8-carbonitrile]	19 nM	–
C[C@@H]1CN(c2ccc(C#N)c3ncccc23)C[C@H](C)N1Cc1ccc(N2CC3CNCC(C2)O3)cn1 [Example 8, 5-[(3S,5R)-3,5-Dimethyl-4-[[5-(9-oxa-3,7-diazabicyclo[3.3.1]nonan-3-yl)-2-pyridyl]methyl]piperazin-1-yl]quinoline-8-carbonitrile]	36 nM	12.5%
C[C@@H]1CN(c2ccc(C#N)c3ncccc23)C[C@H](C)N1Cc1ccc(N[C@@H]2CNC[C@@H]2F)cn1 [Example 9, 5-[(3R,5S)-3,5-Dimethyl-4-[[5-[[(3R,4S)-4-fluoropyrrolidin-3-yl]amino]-2-pyridyl]methyl]piperazin-1-yl]quinoline-8-carbonitrile]	22 nM	-6.5%
C[C@@H]1CN(c2ccc(C#N)c3ncccc23)C[C@H](C)N1Cc1ccc(N2CCNCC2CO)cc1 (stereo partly drawn) [Example 12, 5-[(3R,5S)-4-[[4-[2-(Hydroxymethyl)piperazin-1-yl]phenyl]methyl]-3,5-dimethyl-piperazin-1-yl]quinoline-8-carbonitrile]	33 nM	–
C[C@@H]1CN(c2ccc(C#N)c3ncccc23)C[C@H](C)N1CC(=O)N1CCc2nc(N3CCNCC3)ccc2C1 [Example 13, 5-[(3R,5S)-3,5-Dimethyl-4-[2-oxo-2-(2-piperazin-1-yl-7,8-dihydro-5H-1,6-naphthyridin-6-yl)ethyl]piperazin-1-yl]quinoline-8-carbonitrile]	21 nM	–
C[C@@H]1CN(c2ccc(C#N)c3ncccc23)C[C@H](C)N1CC(=O)N1CCc2cc(N3CCNCC3)ccc2C1 [Example 14, 5-[(3R,5S)-3,5-Dimethyl-4-[2-oxo-2-(6-piperazin-1-yl-3,4-dihyrdo-1H-isoquinolin-2-yl)ethyl]piperazin-1-yl]quinoline-8-carbonitrile]	20 nM	–
